Results taken from patent publication US7208270B2, “Method for diagnosing a person having multiple sclerosis” (priority 2001, dated 2007).
Entries after “also recorded” stand apart in the source; their conditions may differ.

Columns and labels:
[1] = tested on: SARG-1 over-expressing PC12 cells; assay: Viability of SARG-1 over-expressing PC12 cultures treated with kinase inhibitors; assay type: cell-based, rat; conditions: staurosporine at 100 nM, in comparison to vector control cultures
Source text: (§1) To examine the expression and function of SARG-1 in a neural cell culture system, standard molecular biology techniques (Sanbrook et al, 1989) were used to clone the rat SARG-1 coding sequence (rSARG-1479) into the pIRESII-EGFP eukaryotic expression vector (Clontech) under the control of a CMV promoter which bicistroni-cally translates through an internal IRES sequence both SARG-1477 and enhanced green fluorescent protein. The rat pheochromocytoma PC12 cell line was maintained in DMEM supplemented with 8% horse serum, 8% fetal calf serum and an antibiotic-antimycotic mix containing 100 units/ml penicillin, 100 μg/ml streptomycin, and 0.25 μg/ml amphotericin B (all from GibcoBRL) in a fully humidified air atmosphere containing 5% CO2 at 37° C. Semi-confluent cultures in 6-well plates were transfected with pIRES2-EGFP-SARG-1 or empty vector for 18 h in the presence of the uptake enhancing cationic lipid mix pFx1 (Invitrogen) at a 6:1 lipid to DNA ratio in serum-free opti-MEN (Gibco). Stable transfectant colonies were picked from separate wells after selection in […] geneticin (Gibco) and clones with similar EGFP fluorescence expanded from independent transfections.
(§2) Over-expression of SARG-1 also enhances terminal differentiation of PC12 cells induced by nerve growth factor (FIG. 14).

[2] = tested on: PC12 cells transfected with empty vector; assay: Vector control PC12 cultures treated with staurosporine; assay type: cell-based, rat; conditions: 100 nM
Source text: as §1, §2

PC12 cells = conditions: cited from earlier work
[3] = tested on: SARG-1 over-expressing PC12 cells; assay: Flow cytometrical cell cycle analysis of transfected PC12 cells; assay type: cell-based, rat; conditions: 100 nM, 24 h, ethanol fixed cells
Source text: as §2

SMILES | effect on viability / cell death [1] | effect on vector control cultures [2] | concentration inducing apoptosis (PC12 cells; Fu et al, 1999) | concentration inducing neurite outgrowth (PC12 cells; Hashimoto and Hagino, 1989) [nM] | flow cytometry: sub G0/G1 peak / loss of DNA characteristic of apoptosis [3]
CN(C)CCCn1cc(C2=C(c3c[nH]c4ccccc34)C(=O)NC2=O)c2ccccc21 [Bisindolylmaleimide I] | No similar effects | – | – | – | –
COc1cccc(-c2cc(=O)c3ccccc3o2)c1N [PD 98059] | No similar effects | – | – | – | –
COC(=O)[C@@]1(O)C[C@H]2O[C@]1(C)n1c3ccccc3c3c4c(c5c6ccccc6n2c5c31)C(=O)NC4 [X252a] | No similar effects | – | – | – | –
CN[C@@H]1C[C@H]2O[C@@](C)([C@@H]1OC)n1c3ccccc3c3c4c(c5c6ccccc6n2c5c31)C(=O)NC4 [staurosporine] | rapid loss in viability | neurite outgrowth | above 1 mM | 100 | sub G0/G1 peak characteristic for the induction of apoptosis is seen only in SARG-1 over-expressing cells; also recorded: loss of DNA from ethanol fixed cells
